Consider 1 compound from patent publication US11427548B2 (Arvinas Operations, Inc., priority 2015, dated 2022).

In one test the target is T1, Androgen Receptor (Homo sapiens, UniProt P10275).
T1 construct: endogenous in cells; host or cells: VCaP cells
T1 sequence (P10275 1-920): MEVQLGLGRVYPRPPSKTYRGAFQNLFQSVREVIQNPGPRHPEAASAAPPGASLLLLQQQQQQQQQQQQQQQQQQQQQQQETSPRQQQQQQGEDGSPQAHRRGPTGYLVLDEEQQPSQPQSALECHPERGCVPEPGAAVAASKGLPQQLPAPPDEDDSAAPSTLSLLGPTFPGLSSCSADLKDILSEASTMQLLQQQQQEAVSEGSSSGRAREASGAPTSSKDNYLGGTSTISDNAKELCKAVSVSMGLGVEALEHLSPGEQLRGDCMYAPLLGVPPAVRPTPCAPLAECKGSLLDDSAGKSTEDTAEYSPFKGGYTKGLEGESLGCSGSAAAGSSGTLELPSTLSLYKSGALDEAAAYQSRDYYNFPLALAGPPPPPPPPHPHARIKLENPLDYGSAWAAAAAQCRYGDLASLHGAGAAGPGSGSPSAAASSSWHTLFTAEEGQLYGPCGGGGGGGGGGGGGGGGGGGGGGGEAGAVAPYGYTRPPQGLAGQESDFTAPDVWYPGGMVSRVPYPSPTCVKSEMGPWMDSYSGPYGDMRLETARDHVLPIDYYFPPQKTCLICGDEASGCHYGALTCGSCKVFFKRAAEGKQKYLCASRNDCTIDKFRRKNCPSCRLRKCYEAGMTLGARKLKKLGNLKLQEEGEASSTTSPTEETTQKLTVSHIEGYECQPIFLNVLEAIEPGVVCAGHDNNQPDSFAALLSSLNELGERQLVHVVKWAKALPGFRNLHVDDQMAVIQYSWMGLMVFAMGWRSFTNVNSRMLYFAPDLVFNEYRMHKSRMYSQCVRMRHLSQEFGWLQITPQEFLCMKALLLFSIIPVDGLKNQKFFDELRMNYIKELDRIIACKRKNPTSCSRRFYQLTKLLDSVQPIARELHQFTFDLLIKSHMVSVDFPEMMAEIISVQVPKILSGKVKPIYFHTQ
The experiment in a line: Androgen Receptor ELISA assay (PathScan AR ELISA) in VCaP cells: AR degradation, Dmax and DC50. The format is cell-based. The settings on record: VCaP cells (Table 32). Summed up: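 VCaP cells, 30,000/well, grown ≥3 days in phenol red-free RPMI with 5% charcoal-stripped FBS; compound added in 0.1% DMSO with 0.1 nM R1881, 7 half-log doses, 24 h. Lysate AR quantified by PathScan sandwich ELISA, HRP/TMB read at 450 nm, giving DC50 and Dmax.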

The next test relates to VCaP cells. The experiment in a line: VCaP cell proliferation assay (Cell Titer Glo), GI50. The format is cell-based. As to conditions: Homo sapiens; VCaP cells, 0.1 nM R1881; Table 37; read-out: GI50, Inhibition of VCaP Proliferation. Summed up: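 VCaP cells at 7,500/well were androgen-depleted for at least 3 days in phenol red-free RPMI with 5% charcoal-stripped FBS, then dosed with PROTACs plus 0.1 nM R1881. Growth was read by CellTiter Glo luminescence against a baseline taken on the day of dosing, giving GI50.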

For another test, the system named is C57B6 mouse model. The experiment in a line: Prostate involution in C57B6 mouse model. Type of test: in vivo. As to conditions: 12-week old male C57BL/6 mice; IP, QD, 1 and 3 mpk; 10 days. An excerpt: FIG. 5. Prostate involution in C57B6 mouse model.
6. Prostate Involution in C57B6 Mouse Model.

A further test has as its system VCaP xenograft. The experiment in a line: Tumor growth inhibition in VCaP xenograft model. Type of test: in vivo. As to conditions: VCaP cells s.c. in castrated CB17 scid mice; enzalutamide PO, QD, 30 mpk; Example 163 IP, QD, 30, 10 and 3 mpk. An excerpt: FIG. 6. Tumor growth inhibition in VCaP xenograft model. VCaP cells were implanted into CB17 scid mice subcutaneously. Once the tumors were palpable, the mice were castrated, leading to temporary tumor stasis.
7. Tumor Growth Inhibition in VCaP Xenograft Model.
VCaP cells were implanted into CB17 scid mice subcutaneously. Once the tumors were palpable, the mice were castrated, leading to temporary tumor stasis.

The structures appear in SMILES notation. Entries after “also recorded” stand apart in the source; their conditions may differ.

Usually Dmax stands for the largest share of the target that was removed. By DC50 is commonly meant the midpoint of the concentration-degradation curve. `Cc1ncsc1-c1ccc(CNC(=O)[C@@H]2C[C@@H](O)CN2C(=O)[C@@H](NC(=O)COCCCCOc2ccc(C(=O)N[C@H]3C(C)(C)[C@H](Oc4ccc(C#N)c(Cl)c4)C3(C)C)cc2)C(C)(C)C)cc1` [Example 163, (2S,4R)-1-[(2S)-3,3-dimethyl-2-{2-[4-(4-{[trans-3-(3-chloro-4-cyanophenoxy)-2,2,4,4-tetramethylcyclobutyl]carbamoyl}phenoxy)butoxy]acetamido}butanoyl]-4-hydroxy-N-{[4-(4-methyl-1,3-thiazol-5-yl)phenyl]methyl}pyrrolidine-2-carboxamide]: at Androgen Receptor (VCaP, highest percentage of Androgen Receptor degradation observed, read-out: VCaP Dmax (%)), the Dmax is over 71%. On Androgen Receptor (concentration that caused 50% Androgen Receptor degradation, read-out: VCaP DC50), the DC50 is under 50 nM. For the same compound, the GI50 in the test on VCaP cells was at most 50 nM. For the same compound, the “prostate weights (prostate involution)” value with C57B6 mouse model is on record as “significant reduction in prostate weights; also recorded: significant prostate involution”. Moreover, the Tumor growth inhibition entry with VCaP xenograft is recorded as “Tumor growth inhibition was observed”.
